Experimental data: ChEMBL document CHEMBL3286290, “In vitro screening of pentamidine analogs against bacterial and fungal strains” (Bioorg Med Chem Lett, 2014)

Experiments:
HeLa [1] = assay: Cytotoxicity against human HeLa cells assessed as inhibition of cell viability after 48 hrs by MTT assay; assay type: cell-based
Aspergillus brasiliensis = assay: Antifungal activity against Aspergillus brasiliensis ATCC 16404 assessed as growth inhibition by M7-A6 method; assay type: functional
Bacillus subtilis = assay: Antibacterial activity against Bacillus subtilis ATCC 6633 assessed as growth inhibition by M7-A6 method; assay type: functional
Candida parapsilosis = assay: Antifungal activity against Candida parapsilosis ATCC 22019 assessed as growth inhibition by M7-A6 method; assay type: functional; conditions: Lodderomyces parapsilosis
Micrococcus luteus [2] = assay: Antibacterial activity against Micrococcus luteus ATCC 9341 assessed as growth inhibition by M7-A6 method; assay type: functional
Pseudomonas aeruginosa [3] = assay: Antibacterial activity against Pseudomonas aeruginosa ATCC 9027 assessed as growth inhibition by M7-A6 method; assay type: functional
A549 [4] = assay: Cytotoxicity against human A549 cells assessed as inhibition of cell viability after 72 hrs by MTT assay; assay type: cell-based; conditions: A549, 72 h
Micrococcus luteus [5] = assay: Antibacterial activity against Micrococcus luteus ATCC 10240 assessed as growth inhibition by M7-A6 method; assay type: functional
[6] = Cytotoxicity against human HeLa cells assessed as cell viability at 10 ug/ml after 48 hrs by MTT assay; assay type: cell-based; conditions: read-out: Activity
[7] = Cytotoxicity against human A549 cells assessed as cell viability at 10 ug/ml after 72 hrs by MTT assay; assay type: cell-based; conditions: read-out: Activity
[8] = Cytotoxicity against human A549 cells assessed as cell viability at 50 ug/ml after 48 hrs by MTT assay; assay type: cell-based; conditions: read-out: Activity
Staphylococcus aureus [9] = assay: Antibacterial activity against penicillin, erythromycin, amikacin, clindamycin, ciprofloxacin, methicillin-resistant Staphylococcus aureus 573/12 assessed as growth inhibition by M7-A6 method; assay type: functional
Candida albicans [10] = assay: Antifungal activity against Candida albicans ATCC 2091 assessed as growth inhibition by M7-A6 method; assay type: functional
Staphylococcus aureus [11] = assay: Antibacterial activity against penicillin, erythromycin, amikacin, clindamycin, ciprofloxacin, methicillin-resistant Staphylococcus aureus 572/12 assessed as growth inhibition by M7-A6 method; assay type: functional
[12] = Cytotoxicity against human HeLa cells assessed as cell viability at 200 ug/ml after 72 hrs by MTT assay; assay type: cell-based; conditions: read-out: Activity
Candida albicans [13] = assay: Antifungal activity against Candida albicans ATCC 10231 assessed as growth inhibition by M7-A6 method; assay type: functional
A549 [14] = assay: Cytotoxicity against human A549 cells assessed as inhibition of cell viability after 48 hrs by MTT assay; assay type: cell-based; conditions: A549, 48 h
[15] = Cytotoxicity against human HeLa cells assessed as cell viability at 50 ug/ml after 48 hrs by MTT assay; assay type: cell-based; conditions: read-out: Activity
[16] = Cytotoxicity against human HeLa cells assessed as cell viability at 100 ug/ml after 72 hrs by MTT assay; assay type: cell-based; conditions: read-out: Activity
Staphylococcus aureus [17] = assay: Antibacterial activity against erythromycin, amikacin, clindamycin, ciprofloxacin, methicillin-resistant Staphylococcus aureus 15K/11 assessed as growth inhibition by M7-A6 method; assay type: functional
[18] = Cytotoxicity against human HeLa cells assessed as cell viability at 200 ug/ml after 48 hrs by MTT assay; assay type: cell-based; conditions: read-out: Activity
[19] = Cytotoxicity against human A549 cells assessed as cell viability at 50 ug/ml after 72 hrs by MTT assay; assay type: cell-based; conditions: read-out: Activity
Staphylococcus aureus [20] = assay: Antibacterial activity against Staphylococcus aureus ATCC 6538P assessed as growth inhibition by M7-A6 method; assay type: functional
[21] = Cytotoxicity against human A549 cells assessed as cell viability at 200 ug/ml after 72 hrs by MTT assay; assay type: cell-based; conditions: read-out: Activity
[22] = Cytotoxicity against human A549 cells assessed as cell viability at 100 ug/ml after 72 hrs by MTT assay; assay type: cell-based; conditions: read-out: Activity
[23] = Cytotoxicity against human A549 cells assessed as cell viability at 200 ug/ml after 48 hrs by MTT assay; assay type: cell-based; conditions: read-out: Activity
Staphylococcus aureus [24] = assay: Antibacterial activity against penicillin, erythromycin, clindamycin, ciprofloxacin, methicillin-resistant Staphylococcus aureus 19K/11 assessed as growth inhibition by M7-A6 method; assay type: functional
[25] = Cytotoxicity against human HeLa cells assessed as cell viability at 10 ug/ml after 72 hrs by MTT assay; assay type: cell-based; conditions: read-out: Activity
Escherichia coli = assay: Antibacterial activity against Escherichia coli ATCC 8739 assessed as growth inhibition by M7-A6 method; assay type: functional
[26] = Cytotoxicity against human A549 cells assessed as cell viability at 100 ug/ml after 48 hrs by MTT assay; assay type: cell-based; conditions: read-out: Activity
[27] = Cytotoxicity against human A549 cells assessed as cell viability at 10 ug/ml after 48 hrs by MTT assay; assay type: cell-based; conditions: read-out: Activity
Staphylococcus aureus [28] = assay: Antibacterial activity against penicillin, erythromycin, amikacin, clindamycin, ciprofloxacin, methicillin-resistant Staphylococcus aureus 495/11 assessed as growth inhibition by M7-A6 method; assay type: functional
Saccharomyces cerevisiae = assay: Antifungal activity against Saccharomyces cerevisiae ATCC 9763 assessed as growth inhibition by M7-A6 method; assay type: functional
[29] = Cytotoxicity against human HeLa cells assessed as cell viability at 100 ug/ml after 48 hrs by MTT assay; assay type: cell-based; conditions: read-out: Activity
Staphylococcus aureus [30] = assay: Antibacterial activity against Staphylococcus aureus ATCC 6538 assessed as growth inhibition by M7-A6 method; assay type: functional
Pseudomonas aeruginosa [31] = assay: Antibacterial activity against Pseudomonas aeruginosa ATCC 15442 assessed as growth inhibition by M7-A6 method; assay type: functional
[32] = Cytotoxicity against human HeLa cells assessed as cell viability at 50 ug/ml after 72 hrs by MTT assay; assay type: cell-based; conditions: read-out: Activity
Bacillus cereus = assay: Antibacterial activity against Bacillus cereus ATCC 11778 assessed as growth inhibition by M7-A6 method; assay type: functional
HeLa [33] = assay: Cytotoxicity against human HeLa cells assessed as inhibition of cell viability after 72 hrs by MTT assay; assay type: cell-based

SMILES | IC50 (HeLa [1]) | MIC (Aspergillus brasiliensis) | MIC (Bacillus subtilis) | MIC (Candida parapsilosis) | MIC (Micrococcus luteus [2]) | MIC (Pseudomonas aeruginosa [3]) | IC50 (A549 [4]) | MIC (Micrococcus luteus [5]) | viability at 48 h, 10 ug/ml [6] | viability at 72 h, 10 ug/ml [7] | viability at 48 h, 50 ug/ml [8] | MIC (Staphylococcus aureus [9]) | MIC (Candida albicans [10]) | MIC (Staphylococcus aureus [11]) | viability at 72 h, 200 ug/ml [12] | MIC (Candida albicans [13]) | IC50 (A549 [14]) | viability at 48 h, 50 ug/ml [15] | viability at 72 h, 100 ug/ml [16] | MIC (Staphylococcus aureus [17]) | also measured
Cl.c1cc(C2=NCCN2)ccc1OCCSCCOc1ccc(C2=NCCN2)cc1 | > 100 µg/mL | > 1960 µM | 240 µM | 29 µM | 9.8 µM | > 1960 µM | ≥ 50 µg/mL | 9.8 µM | 76.9% | 59.1% | 63.6% | 1960 µM | 240 µM | 1960 µM | 10.7% | 240 µM | > 100 µg/mL | 68.5% | 41.8% | 980 µM | viability at 48 h, 200 ug/ml [18]: 16.5%; viability at 72 h, 50 ug/ml [19]: 49%; MIC (Staphylococcus aureus [20]): 980 µM; viability at 72 h, 200 ug/ml [21]: 10.2%; viability at 72 h, 100 ug/ml [22]: 34.4%; viability at 48 h, 200 ug/ml [23]: 16.5%; MIC (Staphylococcus aureus [24]): 1960 µM; viability at 72 h, 10 ug/ml [25]: 67.7%; MIC (Escherichia coli): 980 µM; viability at 48 h, 100 ug/ml [26]: 52.6%; viability at 48 h, 10 ug/ml [27]: 80.3%; MIC (Staphylococcus aureus [28]): 1960 µM; MIC (Saccharomyces cerevisiae): 980 µM; viability at 48 h, 100 ug/ml [29]: 53.5%; MIC (Staphylococcus aureus [30]): 980 µM; MIC (Pseudomonas aeruginosa [31]): > 1960 µM; viability at 72 h, 50 ug/ml [32]: 68.1%; MIC (Bacillus cereus): 980 µM; IC50 (HeLa [33]): > 100 µg/mL
Cl.N=C(N)c1ccc(SCCOCCSc2ccc(C(=N)N)cc2)cc1 | < 50 µg/mL | 2150 µM | 130 µM | 270 µM | 4.3 µM | 1070 µM | 10 µg/mL | 4.3 µM | 76.2% | 56.4% | 48.1% | 130 µM | 1070 µM | 270 µM | 7.4% | 1070 µM | 50 µg/mL | 10.4% | 7.4% | 1070 µM | viability at 48 h, 200 ug/ml [18]: 10.1%; viability at 72 h, 50 ug/ml [19]: 16.2%; MIC (Staphylococcus aureus [20]): 130 µM; viability at 72 h, 200 ug/ml [21]: 7.9%; viability at 72 h, 100 ug/ml [22]: 8.2%; viability at 48 h, 200 ug/ml [23]: 9.5%; MIC (Staphylococcus aureus [24]): 130 µM; viability at 72 h, 10 ug/ml [25]: 65.3%; MIC (Escherichia coli): 540 µM; viability at 48 h, 100 ug/ml [26]: 19.8%; viability at 48 h, 10 ug/ml [27]: 77.1%; MIC (Staphylococcus aureus [28]): 1070 µM; MIC (Saccharomyces cerevisiae): 540 µM; viability at 48 h, 100 ug/ml [29]: 10.3%; MIC (Staphylococcus aureus [30]): 130 µM; MIC (Pseudomonas aeruginosa [31]): 2150 µM; viability at 72 h, 50 ug/ml [32]: 7.8%; MIC (Bacillus cereus): 540 µM; IC50 (HeLa [33]): < 50 µg/mL
